Test results: ChEMBL document CHEMBL4680379, “Structure-based Discovery of Cell-Potent Peptidomimetic Inhibitors for Protein N-Terminal Methyltransferase 1” (ACS Med Chem Lett, 2021)
The source made the active and inactive calls. The rule behind the calls is not given here.

How the values were obtained:
[1] = biological target: T1, N-terminal Xaa-Pro-Lys N-methyltransferase 1 (Homo sapiens) (UniProt Q9BV86); assay: Inhibition of NTMT1 in human HCT116 cells assessed as decrease in me3-SPK level at 1 mM incubated for 3 days by Western blot analysis relative to control; type: cell-based; details: HCT-116, time 3.0 day
T1 sequence (whole entry): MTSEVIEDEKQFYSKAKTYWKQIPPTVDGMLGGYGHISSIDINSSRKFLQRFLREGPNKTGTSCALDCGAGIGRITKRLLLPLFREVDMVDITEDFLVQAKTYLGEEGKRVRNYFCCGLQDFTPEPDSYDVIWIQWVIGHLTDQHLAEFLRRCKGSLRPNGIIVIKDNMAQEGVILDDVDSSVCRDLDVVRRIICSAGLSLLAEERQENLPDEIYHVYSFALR

[2] = biological target: T1, N-terminal Xaa-Pro-Lys N-methyltransferase 1 (Homo sapiens); assay: Inhibition of NTMT1 in human HCT116 cells assessed as decrease in me3-SPK level at 300 uM incubated for 3 days by Western blot analysis relative to control; type: cell-based; details: HCT-116, time 3.0 day
[3] = biological target: T2, N-terminal Xaa-Pro-Lys N-methyltransferase 1 (Homo sapiens, UniProt Q9BV86); assay: Inhibition of recombinant human N-terminal His6-tagged NTMT1 (1 to 222 residues) expressed in Escherichia coli BL21-CodonPlus(DE3)-RIL using GPKRIA peptide and SAM as substrate pre-incubated for 10 mins in presence of SAM followed by substrate addition by SAHH coupled fluorescence assay
T2 sequence (Q9BV86 whole entry): T1 sequence (whole entry)

[4] = biological target: T1, N-terminal Xaa-Pro-Lys N-methyltransferase 1 (Homo sapiens); assay: Inhibition of NTMT1 in human HCT116 cells assessed as decrease in me3-SPK level at 100 uM incubated for 3 days by Western blot analysis relative to control; type: cell-based; details: HCT-116, time 3.0 day
[5] = biological target: Trypsin (Homo sapiens, UniProt P07477+P07478+P35030); assay: Stability of compound assessed as trypsin (unknown origin) mediated compound hydrolysis at 10 uM incubated for 1 hr by MALDI-MS analysis; type: ADME, protein assay
[6] = Selectivity for recombinant human N-terminal His6-tagged NTMT1 (1 to 222 residues) expressed in Escherichia coli BL21-CodonPlus(DE3)-RIL over Trypanosoma brucei N-terminal His6-tagged PRMT7 expressed in Escherichia coli BL21-CodonPlus(DE3)-RIL
[7] = biological target: Protein arginine N-methyltransferase 3 (Homo sapiens) (UniProt O60678); assay: Inhibition of PRMT3 (unknown origin) at 100 uM relative to control
Sequence of Protein arginine N-methyltransferase 3 (Homo sapiens) (O60678 2-531 limits assumed): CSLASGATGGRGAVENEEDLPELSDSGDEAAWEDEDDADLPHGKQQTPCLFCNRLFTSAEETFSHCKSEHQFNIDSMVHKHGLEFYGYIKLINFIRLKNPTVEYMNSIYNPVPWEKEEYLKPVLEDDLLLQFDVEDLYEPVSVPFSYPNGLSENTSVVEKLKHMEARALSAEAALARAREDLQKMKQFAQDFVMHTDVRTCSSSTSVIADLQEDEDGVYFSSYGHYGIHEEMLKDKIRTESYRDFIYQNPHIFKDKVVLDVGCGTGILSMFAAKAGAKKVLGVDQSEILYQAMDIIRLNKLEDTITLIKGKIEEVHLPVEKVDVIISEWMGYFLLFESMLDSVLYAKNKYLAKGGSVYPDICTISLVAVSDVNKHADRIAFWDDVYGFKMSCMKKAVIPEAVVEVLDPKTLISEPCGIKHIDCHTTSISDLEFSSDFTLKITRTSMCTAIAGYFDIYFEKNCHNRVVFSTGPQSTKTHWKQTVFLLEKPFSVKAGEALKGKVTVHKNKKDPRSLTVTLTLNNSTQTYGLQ

[8] = biological target: T3, Histone-lysine N-methyltransferase EHMT2 (Homo sapiens) (UniProt Q96KQ7); assay: Inhibition of human His-tagged G9a (913 to 1193 residues) expressed in Escherichia coli BL21-CodonPlus(DE3)-RIL at 100 uM using H3-21 peptide as substrate preincubated for 10 mins in presence of SAM followed by substrate addition by SAHH-coupled fluorescence assay relative to control
T3 sequence (whole entry): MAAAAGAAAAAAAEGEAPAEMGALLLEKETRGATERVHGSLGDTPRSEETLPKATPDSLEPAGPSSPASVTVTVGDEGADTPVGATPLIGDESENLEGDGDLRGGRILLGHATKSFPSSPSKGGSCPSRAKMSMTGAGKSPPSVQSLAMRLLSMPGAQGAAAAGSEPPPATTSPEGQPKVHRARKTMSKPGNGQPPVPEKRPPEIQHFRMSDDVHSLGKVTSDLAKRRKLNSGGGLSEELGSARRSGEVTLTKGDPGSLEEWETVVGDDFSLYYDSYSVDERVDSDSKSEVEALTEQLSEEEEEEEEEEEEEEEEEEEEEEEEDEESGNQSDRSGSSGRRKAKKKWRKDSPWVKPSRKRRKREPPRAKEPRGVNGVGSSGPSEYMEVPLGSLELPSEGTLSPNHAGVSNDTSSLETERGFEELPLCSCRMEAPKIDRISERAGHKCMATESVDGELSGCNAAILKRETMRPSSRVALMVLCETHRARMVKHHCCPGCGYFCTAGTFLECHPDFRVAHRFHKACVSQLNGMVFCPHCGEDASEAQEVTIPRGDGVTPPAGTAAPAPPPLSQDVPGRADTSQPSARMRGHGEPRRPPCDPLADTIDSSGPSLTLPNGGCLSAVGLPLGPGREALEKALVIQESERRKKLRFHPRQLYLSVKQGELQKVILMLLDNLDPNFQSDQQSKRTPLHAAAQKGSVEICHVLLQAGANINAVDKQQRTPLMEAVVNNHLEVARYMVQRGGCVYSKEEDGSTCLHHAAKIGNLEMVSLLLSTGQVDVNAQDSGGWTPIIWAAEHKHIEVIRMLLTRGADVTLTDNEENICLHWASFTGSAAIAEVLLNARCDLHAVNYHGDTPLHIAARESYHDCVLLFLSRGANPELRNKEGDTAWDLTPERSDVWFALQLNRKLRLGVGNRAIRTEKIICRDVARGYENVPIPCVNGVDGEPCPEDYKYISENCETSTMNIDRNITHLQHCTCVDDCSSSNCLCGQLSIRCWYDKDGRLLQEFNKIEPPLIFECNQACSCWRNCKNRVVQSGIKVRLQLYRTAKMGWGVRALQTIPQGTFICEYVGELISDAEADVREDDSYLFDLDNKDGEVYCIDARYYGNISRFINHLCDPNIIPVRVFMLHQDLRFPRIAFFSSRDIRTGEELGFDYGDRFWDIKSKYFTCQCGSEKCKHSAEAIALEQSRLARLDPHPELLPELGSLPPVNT

[9] = biological target: T1, N-terminal Xaa-Pro-Lys N-methyltransferase 1 (Homo sapiens); assay: Non-competitive inhibition of recombinant human N-terminal His6-tagged NTMT1 (1 to 222 residues) expressed in Escherichia coli BL21-CodonPlus(DE3)-RIL using GPKRIA peptide and varying concentration of SAM as substrate pre-incubated for 10 mins in presence of SAM followed by fixed concentration of substrate addition and measured for 15 mins by SAHH coupled fluorescence assay; details: time 25.0 min
[10] = species on record: Homo sapiens; assay: Selectivity for recombinant human N-terminal His6-tagged NTMT1 (1 to 222 residues) expressed in Escherichia coli BL21-CodonPlus(DE3)-RIL over His-tagged SETD7 (unknown origin)
[11] = species on record: Homo sapiens; assay: Selectivity for recombinant human N-terminal His6-tagged NTMT1 (1 to 222 residues) expressed in Escherichia coli BL21-CodonPlus(DE3)-RIL over human His-tagged G9a (913 to 1193 residues) expressed in Escherichia coli BL21-CodonPlus(DE3)-RIL
[12] = test system: Trypanosoma brucei; assay: Inhibition of Trypanosoma brucei N-terminal His6-tagged PRMT7 expressed in Escherichia coli BL21-CodonPlus(DE3)-RIL at 100 uM using H4-21 peptide as substrate preincubated for 10 mins in presence of SAM followed by substrate addition by SAHH-coupled fluorescence assay relative to control
[13] = biological target: Protein arginine N-methyltransferase 1 (Homo sapiens) (UniProt Q99873); assay: Inhibition of PRMT1 (unknown origin) at 100 uM using H4-21 peptide as substrate preincubated for 10 mins in presence of SAM followed by substrate addition by SAHH-coupled fluorescence assay relative to control
Sequence of Protein arginine N-methyltransferase 1 (Homo sapiens) (Q99873 whole entry, looked up, the tested form may be a part): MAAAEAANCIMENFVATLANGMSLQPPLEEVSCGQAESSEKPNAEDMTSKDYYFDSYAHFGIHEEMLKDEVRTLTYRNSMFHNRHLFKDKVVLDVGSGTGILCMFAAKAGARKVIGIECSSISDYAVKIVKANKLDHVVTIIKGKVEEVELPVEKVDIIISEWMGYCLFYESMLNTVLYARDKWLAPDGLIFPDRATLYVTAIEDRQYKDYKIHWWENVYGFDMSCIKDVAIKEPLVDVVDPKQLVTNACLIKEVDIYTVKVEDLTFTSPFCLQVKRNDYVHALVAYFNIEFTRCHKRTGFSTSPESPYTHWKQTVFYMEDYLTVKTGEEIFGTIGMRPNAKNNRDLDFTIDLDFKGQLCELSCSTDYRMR

[14] = species on record: Homo sapiens; assay: Selectivity for recombinant human N-terminal His6-tagged NTMT1 (1 to 222 residues) expressed in Escherichia coli BL21-CodonPlus(DE3)-RIL over PRMT1 (unknown origin)
[15] = biological target: Adenosylhomocysteinase (Homo sapiens) (UniProt P23526); assay: Inhibition of SAHH (unknown origin) at 100 uM relative to control
Sequence of Adenosylhomocysteinase (Homo sapiens) (P23526 2-432 limits assumed): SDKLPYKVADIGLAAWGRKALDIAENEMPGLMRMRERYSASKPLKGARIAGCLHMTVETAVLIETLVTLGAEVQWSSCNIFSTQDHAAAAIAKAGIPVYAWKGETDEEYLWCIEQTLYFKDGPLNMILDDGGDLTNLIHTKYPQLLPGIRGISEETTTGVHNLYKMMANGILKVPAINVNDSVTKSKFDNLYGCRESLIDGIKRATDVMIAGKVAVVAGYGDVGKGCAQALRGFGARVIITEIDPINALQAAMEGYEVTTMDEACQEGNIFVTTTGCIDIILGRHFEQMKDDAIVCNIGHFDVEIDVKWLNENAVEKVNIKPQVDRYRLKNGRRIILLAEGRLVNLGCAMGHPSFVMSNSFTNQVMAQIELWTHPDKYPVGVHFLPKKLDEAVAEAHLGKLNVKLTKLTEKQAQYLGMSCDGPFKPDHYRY

[16] = species on record: Homo sapiens; assay: Selectivity for recombinant human N-terminal His6-tagged NTMT1 (1 to 222 residues) expressed in Escherichia coli BL21-CodonPlus(DE3)-RIL over PRMT3 (unknown origin)
[17] = species on record: Homo sapiens; assay: Selectivity for recombinant human N-terminal His6-tagged NTMT1 (1 to 222 residues) expressed in Escherichia coli BL21-CodonPlus(DE3)-RIL over SAHH (unknown origin)
[18] = biological target: T4, Histone-lysine N-methyltransferase SETD7 (Homo sapiens) (UniProt Q8WTS6); assay: Inhibition of His-tagged SETD7 (unknown origin) at 100 uM using H3-21 peptide as substrate preincubated for 10 mins in presence of SAM followed by substrate addition by SAHH-coupled fluorescence assay relative to control
T4 sequence (whole entry): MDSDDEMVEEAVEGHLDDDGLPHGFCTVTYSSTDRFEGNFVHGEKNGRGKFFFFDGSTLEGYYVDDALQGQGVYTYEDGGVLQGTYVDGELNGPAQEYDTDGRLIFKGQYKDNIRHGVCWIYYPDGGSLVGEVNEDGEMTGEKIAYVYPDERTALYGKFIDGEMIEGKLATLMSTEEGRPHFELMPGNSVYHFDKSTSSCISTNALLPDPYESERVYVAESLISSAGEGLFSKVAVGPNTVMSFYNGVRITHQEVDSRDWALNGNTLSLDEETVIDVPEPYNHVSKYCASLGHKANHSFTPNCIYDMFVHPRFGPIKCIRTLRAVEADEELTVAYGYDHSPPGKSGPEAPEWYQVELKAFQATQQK

[19] = biological target: T2, N-terminal Xaa-Pro-Lys N-methyltransferase 1; assay: Inhibition of NTMT1 in human HCT116 cells assessed as decrease in me3-SPK level incubated for 3 days by Western blot analysis; type: cell-based, HCT-116

| Structure (SMILES) | inhibition [1] | inhibition [2] | IC50 [3] | inhibition [4] | Stabilty [5] | Selectivity ratio [6] | inhibition [7] | inhibition [8] | inhibition [9] | Selectivity ratio [10] | Selectivity ratio [11] | inhibition [12] | inhibition [13] | Selectivity ratio [14] | inhibition [15] | Selectivity ratio [16] | Selectivity ratio [17] | inhibition [18] | IC50 [19] |
| --- | --- | --- | --- | --- | --- | --- | --- | --- | --- | --- | --- | --- | --- | --- | --- | --- | --- | --- | --- |
| NCCCC[C@H](NC(=O)[C@@H]1CCCN1C(=O)Cc1cccc2ccccc12)C(=O)Nc1cccc(C(N)=O)c1 | 90% | 57% | 0.13 µM | 10% | – | – | – | – | – | – | – | – | – | – | – | – | – | – | – |
| NCCCC[C@H](NC(=O)[C@@H]1CCCN1C(=O)Cc1cccc2ccccc12)C(=O)N[C@@H](CCC(=O)O)C(N)=O | – | – | 4.2 µM | – | – | – | – | – | – | – | – | – | – | – | – | – | – | – | – |
| CN(C(=O)[C@H](CCCCN)NC(=O)[C@@H]1CCCN1C(=O)Cc1cccc2ccccc12)[C@@H](CCCCN)C(N)=O | 100% | 48% | 0.47 µM | 0% | Stable | – | – | – | – | – | – | – | – | – | – | – | – | – | – |
| C[C@@H](C(N)=O)N(C)C(=O)[C@H](CCCCN)NC(=O)[C@@H]1CCCN1C(=O)Cc1cccc2ccccc12 | 70% | 3% | 0.58 µM | 0% | Stable | – | – | – | – | – | – | – | – | – | – | – | – | – | – |
| N=C(N)NCCC[C@H](NC(=O)[C@H](CCCCN)NC(=O)[C@@H]1CCCN1C(=O)Cc1cccc2ccccc12)C(N)=O | 52% | 10% | 0.1 µM | 3% | Unstable | > 1000 | < 50% | < 50% | Active | > 1000 | > 1000 | < 50% | < 50% | > 1000 | < 50% | > 1000 | > 1000 | < 50% | 1000 µM |
